Results reported in PubChem BioAssay AID849 (SRMLSC, 2007).
Active and inactive are the calls of the source. The rule behind the calls is not given here.

The compounds below were run on Saccharomyces cerevisiae lifespan shortening, growth inhibition (assay: yeast lifespan shortening compounds, dose response (AID 849);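 note: yeast growth read as optical density after two days at 30 degrees C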).

| SMILES | IC50 |
| --- | --- |
| Clc1ccc2[nH]c3c(c2c1)CCc1cn[nH]c1-3 | 12.5 µM |
| COc1ccc(-c2nnc3c4ccccc4c(C)nn23)cc1 | > 100 µM (inactive) |
| CC(C)(C)n1nc(-c2ccc(Cl)cc2)c2c(N)ncnc21 | 20.7 µM |
| CCCCc1ccc(NC(=S)Nc2ccc(Nc3ccc(OC)cc3)cc2)cc1 | 33.1 µM |
| O=C(O)C1C2C=CC(O2)C1C(=O)NC1CCCc2ccccc21 (stereo unspecified) | > 100 µM (inactive) |
| CCCCn1c(=O)c(C(=O)NCc2ccncc2)c(O)c2ccccc21 | > 100 µM (inactive) |
| CCn1c(Sc2nc(C)nc3scc(-c4cccs4)c23)n[nH]c1=O | > 100 µM (inactive) |
| CCC(C)NC(=O)CS(=O)Cc1nc(-c2ccccc2C)oc1C (stereo unspecified) | > 100 µM (inactive) |
| CCCCN=C(NNc1ccc(Br)cc1)C(=O)OCC | 5.3 µM |
| CCc1ccc(S(=O)(=O)NCCc2cn3ccsc3n2)s1 | > 100 µM (inactive) |
| O=C(O)c1ccc(SCc2cnc(Cl)s2)cc1 | 7.4 µM |
| Cc1cc(=O)[nH]c(SCc2nc3ccccc3s2)n1 | > 100 µM (inactive) |
| CCCCCCCCCCCCCCCC[n+]1ccc(C(N)=O)cc1 | 1.1 µM |
| O=C1C2C3C=CC(CO)(O3)C2C(=O)N1c1ccccc1-c1ccccc1 (stereo unspecified) | > 100 µM (inactive) |
| CCc1cc2c(cc(C(=O)O)n2C)s1 | 38.2 µM |
| CCOc1ccc(/C=C/[N+](=O)[O-])c2ccccc12 | > 100 µM (inactive) |
| CC1(C)Cc2c(C#N)c(N)sc(=S)c2CO1 | > 100 µM (inactive) |
| Oc1cc(-c2ccccc2)c2ccccc2c1 | 26 µM |
| O=[N+]([O-])c1ccc(N/N=C/c2ccc[nH]2)cc1 | > 100 µM (inactive) |
| CC(C)c1ccc2c(c1)C1(NN=C(c3ccccc3)S1)C(=O)N2 (stereo unspecified) | 26.3 µM |
| C(=N\c1ncnc2sccc12)/NOCc1ccccc1 | 23.2 µM |
| Cc1nc2ccc(NC(=O)c3cc([N+](=O)[O-])cc([N+](=O)[O-])c3Cl)cc2s1 | 28.9 µM |
| O=[N+]([O-])c1ccc(N/N=C2/CCCCC2c2ccccn2)cc1 (stereo unspecified) | 5.86 µM |
| CN1CSC(=S)N(C)C1 | 17.3 µM |
| CCOC(=O)c1c(NC(=O)C(C)Sc2cccc[n+]2[O-])sc2c1CCN(Cc1ccccc1)C2 (stereo unspecified) | 12.4 µM |

| SMILES | IC50 |
| --- | --- |
| COc1ccc2c(c1)[nH]c1c(Cl)ncnc12 | 29.9 µM |
| CCc1nc2ccccc2c(=O)n1NC(=O)c1c(O)c2cccc3c2n(c1=O)CCC3 | > 100 µM (inactive) |
| CN1C(=O)c2cccc3c(Cl)ccc(c23)C1=O | > 100 µM (inactive) |
| N#CC(c1cccc(Cl)c1)c1ccc2c(C(F)(F)F)cc(C(F)(F)F)nc2n1 (stereo unspecified) | > 100 µM (inactive) |
| O=c1[nH]c(Nc2ccccc2)cc2ccccc12 | > 100 µM (inactive) |
| O=C(Nc1nc(-c2ccccn2)cs1)C1COc2ccccc2O1 (stereo unspecified) | 12.7 µM |
| O=C(Cc1cccs1)NNC(=S)NC(=O)c1ccccc1 | > 100 µM (inactive) |
| NNC(=O)c1ccc(COc2cccc3ccccc23)cc1 | 30.3 µM |
| c1ccc(-c2ccc(OCCCn3cncn3)cc2)cc1 | > 100 µM (inactive) |
| COc1ccc(OC)c(CCNC(=O)Cn2sc3nc(C)cc(C)c3c2=O)c1 | > 100 µM (inactive) |
| CCC(C)/C(C)=N/NC(=O)c1ccc(COc2ccc(Cl)c(C)c2)cc1 (stereo unspecified) | 21.9 µM |
| Cc1cc(Cl)ccc1N=c1ssnc1Cl | > 100 µM (inactive) |
| CCOC(=O)N1CCN(C(=O)Cn2nc(C)c3sc4ccccc4c3c2=O)CC1 | > 100 µM (inactive) |
| Oc1c(I)cc(Cl)c2cccnc12 | 23 µM |
| O=C(CN1CCN(c2ncc(C(F)(F)F)cc2Cl)CC1)NCCNc1ncc(C(F)(F)F)cc1Cl | 42.5 µM |
| CCN1/C(=C/C=C/C=C/c2sc3ccccc3[n+]2CC)Sc2ccccc21 | 21.3 µM |
| Cc1cc(O)c(/C=N/Nc2ccc(Cl)cc2)c(=O)o1 | 5.9 µM |
| Cc1ccc2c(c1)c1c(n2C)-c2[nH]ncc2CC1 | 35.3 µM |
| CCc1cccc(CC)c1NC(=S)NCc1ccc2[nH]c(C)cc2c1 | > 100 µM (inactive) |
| CCCC(=O)NC(c1cccs1)c1cc([N+](=O)[O-])c2cccnc2c1O (stereo unspecified) | 16.6 µM |
| CCSc1nc2ccccc2n1S(=O)(=O)c1ccccc1 | > 100 µM (inactive) |
| CN(C)c1ccc(/C=C/c2ccc3ccccc3[n+]2C)cc1 | 26.4 µM |
| Cc1conc1NC(c1cccs1)c1ccc2cccnc2c1O (stereo unspecified) | 40.8 µM |
| COc1cc(-c2nc3ccc4ccccc4c3c3c2CCC3)ccc1O | > 100 µM (inactive) |
| Cc1ccc(N/N=C/c2c(O)cc(C)oc2=O)cc1 | 24.3 µM |

| SMILES | IC50 |
| --- | --- |
| Nc1ccc(SC(F)(F)F)cc1C(=O)c1ccccc1 | > 100 µM (inactive) |
| Cc1nn2c(-c3ccco3)nnc2c2ccccc12 | 26.5 µM |
| CCN1/C(=C/c2ccc3ccc(C)cc3[n+]2CC)Sc2ccccc21 | 21.4 µM |
| CCSc1nnc(NC(=O)c2ccccn2)s1 | 9.84 µM |
| N/C(Cc1ccc(Cl)cc1)=N\OC(=O)C1CCCCC1 | 11.5 µM |
| O=C(O)CCSc1nnc(-c2ccccc2)n1-c1ccccc1 | > 100 µM (inactive) |
| Cc1nn(-c2cccc(C(F)(F)F)c2)c(Cl)c1/C=N/Nc1cccc(C(=O)O)c1 | 39.8 µM |
| c1ccc(-c2nc3c(ccc4ccccc43)[nH]2)nc1 | 30.7 µM |
| COc1cc(/C=C2/C(=O)ON=C2c2ccccc2)ccc1O | 8.49 µM |
| Cc1nc2ccc(C(=O)O)cc2[nH]1 | > 100 µM (inactive) |
| N/C(Cc1ccc(Cl)cc1Cl)=N\OC(=O)c1cccs1 | 0.78 µM |
| Cc1ccc(-n2c(C)cc(C(=O)COC(=O)c3ccc[nH]c3=O)c2C)cc1C | 3.98 µM |
| COC(=O)Cc1cc(=O)n(-c2nc3ccccc3[nH]2)[nH]1 | 21.7 µM |
| O=C1CSC(=S)N1c1cccnc1 | 31.9 µM |
| CCN(CC)S(=O)(=O)c1ccc(NC(=O)CSc2cccc[n+]2[O-])cc1 | 24.2 µM |
| Fc1ccc(N/N=C2/CC(c3ccccc3)Oc3ccccc32)c(F)c1 (stereo unspecified) | 27.7 µM |
| CC(C)(C)c1ccc(C(=O)NC(=S)NNC(=O)c2cccs2)cc1 | 42.2 µM |
| Oc1cccc(C=NCc2ccccc2)c1O | 9.17 µM |
| O=C1NC(=S)N(c2ccccc2F)C(=O)/C1=C\c1cccs1 | 18.6 µM |
| Cc1ccc(/C=C/C(=O)c2ccccc(=O)c2O)c(C)c1 | 4.42 µM |
| CCc1cccc(C)c1NC(=S)NCCc1c(C)[nH]c2ccc(C)cc12 | 41 µM |
| COc1ccccc1OCCCc1c(C)n[nH]c1C | 8.78 µM |
| O=C(/C=C/N1CCOCC1)c1ccc(-c2ccccc2)cc1 | 11.5 µM |
| C/C(=N\Nc1ccc(Cl)cc1)c1ccccn1 | 43.5 µM |
| COc1cccc(C(=O)O/N=C(\N)Cc2ccc(Cl)cc2)c1 | 4.09 µM |

| SMILES | IC50 |
| --- | --- |
| CC(C)(C)c1ccc(-c2nc(-c3ccncc3)no2)cc1 | 23.1 µM |
| CCCCCCCCC/C(=N\O)c1ccccn1 | 4.51 µM |
| O=C(O)c1ccc2c3c(ncnc13)-c1ccccc1C2=O | 1.5 µM |
| O=C(O)CCC(=O)N1CCN(c2nc(-c3ccccc3Cl)c3cc(Br)ccc3n2)CC1 | 29.3 µM |
| O=C1Cc2ccccc2C(=O)N1CCc1ccccc1 | > 100 µM (inactive) |
| O=C(CSC1=NS(=O)(=O)c2ccccc21)Nc1ccccc1 | > 100 µM (inactive) |
| CCN(CC)N=Nc1[nH]nc2nc(C)cc(C)c12 | 7.74 µM |
| C/C(O)=c1/ccc2cccc3nc(C)nc1c23 | 17.6 µM |
| CC1=CC(=O)c2ccccc2C1=O | 18.5 µM |
| O=[N+]([O-])c1ccc(O)c2ncccc12 | 0.575 µM |
| O=C(Nc1ccc(Cl)cc1)ON=C1CCCC1 | 3.69 µM |
| Cc1cc(N/N=C/c2ccc(Cl)cc2Cl)nc(NCc2ccccc2)n1 | 28.9 µM |
| Oc1c(CN2CCN(c3ccccn3)CC2)cc(Cl)c2cccnc12 | 37.2 µM |
| Cc1ccc(C(=O)CSC2=NC(N)=C(C#N)C3(CCCCC3)C2C(N)=O)cc1 (stereo unspecified) | > 100 µM (inactive) |
| Cn1c(SCC(=O)Nc2ccccc2)nc(O)cc1=O | 50.1 µM |
| O=S(=O)(/N=C(\Sc1ccc(Cl)cc1)c1ccccc1)c1ccccc1 | 49.2 µM |
| CC(C)(CNC(=S)NCCc1ccccc1)CNC(=S)NCCc1ccccc1 | > 100 µM (inactive) |
| O=C(O)Cc1ccc2sc(-c3ccccc3)nc2c1 | > 100 µM (inactive) |
| Cc1ccc(Nc2cc(C)nn2-c2nc(C)cc(=O)[nH]2)cc1 | 1.18 µM |
| CC(N=Cc1cccc(O)c1O)c1ccccc1 (stereo unspecified) | 9.02 µM |
| Cc1ccc(COc2ccc(Br)cc2/C=N/O)cc1 | > 100 µM (inactive) |
| O=C(O)CSc1nc(-c2ccc(Cl)cc2)nc2c1oc1ccccc12 | 38 µM |
| Cc1ccc(-c2cc(-c3ccccc3Cl)[nH]n2)c(O)c1 | 51.1 µM |
| NC(=O)c1sc2nc(-c3ccco3)ccc2c1N | > 100 µM (inactive) |
| CCOC(=O)C1=Nc2ccccc2C1=[N+]=[N-] | 5.58 µM |

| SMILES | IC50 |
| --- | --- |
| Cc1cc(/C=N/n2cnnc2)c(C)n1-c1ccc(OCc2ccc(Cl)cc2Cl)cc1 | > 100 µM (inactive) |
| CCCCCCc1ccc(-c2ncc(N)cn2)cc1 | 25.9 µM |
| O=Cc1c(Sc2ccccc2)nc2ccccn2c1=O | 29 µM |
| CC(C)(C)N/N=C/c1cc(Cl)cc([N+](=O)[O-])c1O | 12.9 µM |
| CCOc1ccc(/C=C/C(=O)c2cc(Br)ccc(=O)c2O)cc1 | 11.5 µM |
| C=C(C)COc1ccc(-c2[nH]ncc2-c2ccccc2OC)c(O)c1 | > 100 µM (inactive) |
| O=C(COc1ccccc1)NNC(=S)NC(=O)c1ccc(Cl)cc1Cl | 31.6 µM |
| CC1=CC(=O)C=C(C)C1=NOS(=O)(=O)c1ccccc1 | > 100 µM (inactive) |
| Cc1ccc(OC(=S)Nc2ccc(O)cc2)cc1 | 14 µM |
| CCC1CCCCN1C(=O)CSc1nnc(-c2ccc(OC)cc2)o1 (stereo unspecified) | > 100 µM (inactive) |
| CCOC(=O)c1c(N)sc2c(OC)c(Br)ccc12 | > 100 µM (inactive) |
| O=[N+]([O-])c1ccc(N=Nc2ccc(O)cc2O)cc1 | 32 µM |
| CN1CCN(C2=Cc3ccc(Cl)cc3Sc3ccc(F)cc32)CC1 | 30 µM |
| CC/C(C)=N/Nc1cccc([N+](=O)[O-])c1 | 7.6 µM |
| Cc1ccc(-n2c(C)cc(C(=O)COC(=O)c3ccc[nH]c3=O)c2C)cc1 | 18.1 µM |
| c1ccc2nc3c(nc2c1)[nH]c1ccccc13 | 25 µM |
| COc1ccccc1-c1nnc(NC(=O)C(C)SC2=NCCS2)s1 (stereo unspecified) | > 100 µM (inactive) |
| OCc1ccnc2c(O)cccc12 | > 100 µM (inactive) |
| Cc1c(N=Cc2cc(Br)cc(Br)c2O)cccc1C(=O)O | 23.7 µM |
| CCOc1ccc(N/N=C(/C#N)C(N)=O)cc1 | 7.82 µM |
| COC(=O)CSCc1nc2ccccc2[nH]c1=O | > 100 µM (inactive) |
